Columns and labels:
SARS-CoV-2 P.1 (Gamma) = test: microbe, parasite or virus in culture; assay type: cell-based
SARS-CoV-2 = test: microbe, parasite or virus in culture; assay type: cell-based
[1] = CellTiter-Glo cell viability assay; assay type: cell-based; settings: human, Huh-7 cells; Huh-7, 72 h
multiple cell types = test: CellTox Green Cytotoxicity Assay, average of 6 cell types; settings: average ± SEM, n = 6 cell lines
[2] = Severe acute respiratory syndrome coronavirus 2, Calu-3, 24 h

## NC(=O)c1cn([C@@H]2O[C@H](CO)[C@@H](O)[C@H]2O)c2ncnc(N)c12 [Sangivamycin, sangivamycin]
SARS-CoV-2 P.1 (Gamma); P.1 (Gamma), Calu-3 cells
  SI (selectivity index, CC50/IC50): >9.5
SARS-CoV-2 P.1 (Gamma); [2]
  IC50: 63.3 nM
  IC90: 204 nM
SARS-CoV-2
  SI calculated with the average CellTiter-Glo values: 13
SARS-CoV-2; 2-compartment model for a 70 kg adult, water volumes 42 L
  average in vitro IC50 from all cell types tested, as dose: 0.01 mg/kg
SARS-CoV-2; Severe acute respiratory syndrome coronavirus 2, n = 22, read-out: average IC50 for all viral testing in all cell lines and MOIs
  IC50: 47 ± 5 nM
SARS-CoV-2; average CC50 / average IC50
  SI calculated with the average CellTox Green: > 106
[1]
  CC50 at 72 h: 487 nM
Multiple cell types
  Ratio CellTox Green/CellTiter-Glo, Average: >12.2 ± 3.78
